In patent US11739074B2, “Ras inhibitors” (Revolution Medicines, Inc., priority 2019, dated 2023):

How the values were obtained:
NRAS Q61K = biological target: T1, NRAS Q61K (Homo sapiens, UniProt P01111+P62937, Q61K); assay: Ras-Raf disruption/FRET/MOA assay, NRAS Q61K; type: biochemical; conditions: NRAS Q61K; read-out: NRAS Q61K FRET data IC50
T1 construct: His6
Source text: (§1) Disruption of B-Raf Ras-Binding Domain (BRAF^RBD) Interaction with K-Ras by Compounds of the Invention (Also Called a FRET Assay or an MOA Assay)
(§2) Note—The following protocol describes a procedure for monitoring disruption of K-Ras G12C (GMP-PNP) binding to BRAF^RBD by a compound of the invention. This protocol may also be executed substituting other Ras proteins or nucleotides, such as K-Ras G12D and K-Ras G13D.
(§3) The purpose of this biochemical assay was to measure the ability of test compounds to facilitate ternary complex formation between a nucleotide-loaded K-Ras isoform and Cyclophilin A; the resulting ternary complex disrupts binding to a BRAF^RBD construct, inhibiting K-Ras signaling through a RAF effector.
(§4) In assay buffer containing 25 mM HEPES pH 7.3, 0.002% Tween20, 0.1% BSA, 100 mM NaCl and 5 mM MgCl2, tagless Cyclophilin A, His6-K-Ras-GMPPNP, and GST-BRAF^RBD were combined in a 384-well assay plate at final concentrations of 25 μM, 12.5 nM, and 50 nM, respectively. Compound was present in plate wells as a 10-point 3-fold dilution series starting at a final concentration of 30 μM. After incubation at 25° C. for 3 hours, a mixture of anti-His Eu-W1024 and anti-GST allophycocyanin was then added to assay sample wells at final concentrations of 10 nM and 50 nM, respectively, and the reaction incubated for an additional 1.5 hours. […] Compounds that facilitate disruption of a K-Ras:RAF complex were identified as those eliciting a decrease in the TR-FRET ratio relative to DMSO control wells.

KRAS G13C = KRAS G13C (Homo sapiens, UniProt P01116+P62937, G13C); assay: Ras-Raf disruption/FRET/MOA assay, KRAS G13C; type: biochemical; conditions: disruption of BRAF RBD binding, with Cyclophilin A; read-out: KRAS G13C FRET IC50
Summary of the method: (§5)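 His6-K-Ras-GMPPNP (12.5 nM) was incubated with GST-BRAF RBD (50 nM), tagless cyclophilin A (25 µM) and compound (10-point 3-fold series from 30 µM) in HEPES pH 7.3 buffer for 3 h at 25 °C. Anti-His Eu/anti-GST APC were then added for 1.5 h; disruption was read as a drop in TR-FRET ratio versus DMSO.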

NCI-H358 (K-Ras G12C) = assay: CellTiter-Glo cell viability assay, H358; type: cell-based; conditions: Homo sapiens, NCI-H358, 120 h, NCI-H358, K-Ras G12C, 5-day treatment; read-out: H358 Cell Viability IC50
Summary of the method: (§6)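 Luminescence from CellTiter-Glo serves as the viability read-out after cells are treated with compound for 5 days. Each well's signal is divided by the DMSO average and multiplied by 100, and curves are fitted by four-parameter logistic regression.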

KRAS G13D = KRAS G13D (Homo sapiens, UniProt P01116+P62937, G13D); assay: Ras-Raf disruption/FRET/MOA assay, KRAS G13D; type: biochemical; conditions: disruption of BRAF RBD binding, with Cyclophilin A; read-out: KRAS G13D FRET IC50
Summary of the method: as §5

NRAS WT = biological target: T2, NRAS WT (Homo sapiens, UniProt P01111+P62937); assay: Ras-Raf disruption/FRET/MOA assay, NRAS WT; type: biochemical; conditions: NRAS WT; read-out: NRAS WT FRET data IC50
T2 construct: His6
Source text: as §1, §2, §3, §4

KRAS Q61H = KRAS Q61H (Homo sapiens, UniProt P01116+P62937, Q61H); assay: Ras-Raf disruption/FRET/MOA assay, KRAS Q61H; type: biochemical; conditions: KRAS Q61H; read-out: KRAS Q61H FRET data IC50
Source text: as §1, §2, §3, §4

KRAS G12C = KRAS G12C (Homo sapiens, UniProt P01116+P62937, G12C); assay: Ras-Raf disruption/FRET/MOA assay, KRAS G12C; type: biochemical; conditions: disruption of BRAF RBD binding, with Cyclophilin A; read-out: KRAS G12C FRET IC50
Summary of the method: as §5

NRAS Q61R = biological target: T3, NRAS Q61R (Homo sapiens, UniProt P01111+P62937, Q61R); assay: Ras-Raf disruption/FRET/MOA assay, NRAS Q61R; type: biochemical; conditions: NRAS Q61R; read-out: NRAS Q61R FRET data IC50
T3 construct: His6
Source text: as §1, §2, §3, §4

KRAS G12S = KRAS G12S (Homo sapiens, UniProt P01116+P62937, G12S); assay: Ras-Raf disruption/FRET/MOA assay, KRAS G12S; type: biochemical; conditions: disruption of BRAF RBD binding, with Cyclophilin A; read-out: KRAS G12S FRET IC50
Summary of the method: as §5

NRAS G12C = biological target: T4, NRAS G12C (Homo sapiens, UniProt P01111+P62937, G12C); assay: Ras-Raf disruption/FRET/MOA assay, NRAS G12C; type: biochemical; conditions: NRAS G12C; read-out: NRAS G12C FRET data IC50
T4 construct: His6
Summary of the method: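 Disruption of Ras:RAF binding was read as a drop in TR-FRET ratio versus DMSO controls. The buffer was 25 mM HEPES pH 7.3, 0.002% Tween20, 0.1% BSA, 100 mM NaCl and 5 mM MgCl2. Compounds were tested as a 10-point 3-fold dilution series from 30 μM. Detection used 10 nM anti-His Eu-W1024 and 50 nM anti-GST allophycocyanin.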

AsPC-1 (K-Ras G12D) [1] = assay: CellTiter-Glo cell viability assay, AsPC-1; type: cell-based; conditions: Homo sapiens, ASPC1, 120 h, AsPC-1, K-Ras G12D, 5-day treatment; read-out: AsPC-1 Cell Viability IC50
Summary of the method: as §6

KRAS G12V = KRAS G12V (Homo sapiens, UniProt P01116+P62937, G12V); assay: Ras-Raf disruption/FRET/MOA assay, KRAS G12V; type: biochemical; conditions: disruption of BRAF RBD binding, with Cyclophilin A; read-out: KRAS G12V FRET IC50
Summary of the method: as §5

KRAS G12D = KRAS G12D (Homo sapiens, UniProt P01116+P62937, G12D); assay: Ras-Raf disruption/FRET/MOA assay, KRAS G12D; type: biochemical; conditions: disruption of BRAF RBD binding, with Cyclophilin A; read-out: KRAS G12D FRET IC50
Summary of the method: as §5

AsPC-1 (K-Ras G12D) [2] = assay: Potency assay: pERK in AsPC-1 cells; type: cell-based; conditions: Homo sapiens, ASPC1; AsPC-1 cells, K-Ras G12D; read-out: pERK EC50 (AsPC-1 KRAS G12D)
KRAS WT = KRAS WT (Homo sapiens, UniProt P01116+P62937); assay: Ras-Raf disruption/FRET/MOA assay, KRAS WT; type: biochemical; conditions: disruption of BRAF RBD binding, with Cyclophilin A; read-out: KRAS WT FRET IC50
Summary of the method: as §5

Chain of KRAS G12S (P01116 1-169 isoform P01116-2 G12S limits assumed): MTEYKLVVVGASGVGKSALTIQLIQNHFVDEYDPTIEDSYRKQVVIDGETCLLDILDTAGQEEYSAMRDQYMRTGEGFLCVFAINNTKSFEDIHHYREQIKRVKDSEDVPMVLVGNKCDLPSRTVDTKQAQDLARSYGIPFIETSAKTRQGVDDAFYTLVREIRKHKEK
Chain of KRAS G12S (P62937 whole entry): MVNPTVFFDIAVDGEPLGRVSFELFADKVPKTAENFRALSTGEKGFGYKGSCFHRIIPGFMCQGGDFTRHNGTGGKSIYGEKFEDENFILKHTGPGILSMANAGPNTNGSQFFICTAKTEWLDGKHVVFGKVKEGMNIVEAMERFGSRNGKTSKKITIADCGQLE
T4 sequence (P01111 whole entry G12C): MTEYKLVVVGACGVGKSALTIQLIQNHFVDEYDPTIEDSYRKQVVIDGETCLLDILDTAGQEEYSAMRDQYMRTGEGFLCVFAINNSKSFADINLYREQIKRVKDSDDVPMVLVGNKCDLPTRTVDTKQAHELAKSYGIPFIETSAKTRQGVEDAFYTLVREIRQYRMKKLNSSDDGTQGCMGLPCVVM
T4 sequence (P62937 whole entry): as the sequence (P62937 whole entry) above
Chain of KRAS WT (P01116 1-169 isoform P01116-2 limits assumed): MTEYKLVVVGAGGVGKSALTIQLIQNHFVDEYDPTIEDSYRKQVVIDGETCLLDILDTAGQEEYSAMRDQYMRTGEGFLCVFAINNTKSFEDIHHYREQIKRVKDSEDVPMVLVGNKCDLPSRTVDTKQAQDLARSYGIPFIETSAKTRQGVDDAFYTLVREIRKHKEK
Chain of KRAS WT (P62937 whole entry): as the sequence (P62937 whole entry) above
Chain of KRAS G13C (P01116 1-169 isoform P01116-2 G13C limits assumed): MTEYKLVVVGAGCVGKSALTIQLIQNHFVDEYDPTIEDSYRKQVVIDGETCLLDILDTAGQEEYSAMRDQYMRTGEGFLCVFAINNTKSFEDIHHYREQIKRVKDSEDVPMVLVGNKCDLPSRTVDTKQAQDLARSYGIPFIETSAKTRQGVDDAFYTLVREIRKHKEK
Chain of KRAS G13C (P62937 whole entry): as the sequence (P62937 whole entry) above
Chain of KRAS G12C (P01116 1-169 isoform P01116-2 G12C limits assumed): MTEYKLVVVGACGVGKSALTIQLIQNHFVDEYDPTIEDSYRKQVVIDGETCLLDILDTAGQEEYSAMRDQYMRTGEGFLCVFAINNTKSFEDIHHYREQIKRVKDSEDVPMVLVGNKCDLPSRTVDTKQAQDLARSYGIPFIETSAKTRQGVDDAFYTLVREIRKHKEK
Chain of KRAS G12C (P62937 whole entry): as the sequence (P62937 whole entry) above
Chain of KRAS Q61H (P01116 1-169 isoform P01116-2 Q61H limits assumed): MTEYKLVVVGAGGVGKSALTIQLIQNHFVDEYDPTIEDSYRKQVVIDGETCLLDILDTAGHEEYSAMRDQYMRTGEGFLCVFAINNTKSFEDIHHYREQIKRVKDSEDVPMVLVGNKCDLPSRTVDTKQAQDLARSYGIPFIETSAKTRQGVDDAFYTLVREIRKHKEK
Chain of KRAS Q61H (P62937 whole entry): as the sequence (P62937 whole entry) above
Chain of KRAS G12V (P01116 1-169 isoform P01116-2 G12V limits assumed): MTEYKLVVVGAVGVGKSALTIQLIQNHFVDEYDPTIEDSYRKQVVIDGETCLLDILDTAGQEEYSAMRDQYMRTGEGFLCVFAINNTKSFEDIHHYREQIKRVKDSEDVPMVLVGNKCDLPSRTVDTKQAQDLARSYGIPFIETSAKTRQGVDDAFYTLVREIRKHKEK
Chain of KRAS G12V (P62937 whole entry): as the sequence (P62937 whole entry) above
T1 sequence (P01111 whole entry Q61K): as the sequence (P01111 whole entry G12C) above, with C12G, Q61K counted along it
T1 sequence (P62937 whole entry): as the sequence (P62937 whole entry) above
Chain of KRAS G12D (P01116 1-169 isoform P01116-2 G12D limits assumed): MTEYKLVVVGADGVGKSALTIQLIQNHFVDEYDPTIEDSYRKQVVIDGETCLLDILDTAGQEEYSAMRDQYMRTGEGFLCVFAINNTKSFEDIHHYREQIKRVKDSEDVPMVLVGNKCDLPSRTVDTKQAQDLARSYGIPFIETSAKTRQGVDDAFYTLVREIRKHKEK
Chain of KRAS G12D (P62937 whole entry): as the sequence (P62937 whole entry) above
T3 sequence (P01111 whole entry Q61R): as the sequence (P01111 whole entry G12C) above, with C12G, Q61R counted along it
T3 sequence (P62937 whole entry): as the sequence (P62937 whole entry) above
Chain of KRAS G13D (P01116 1-169 isoform P01116-2 G13D limits assumed): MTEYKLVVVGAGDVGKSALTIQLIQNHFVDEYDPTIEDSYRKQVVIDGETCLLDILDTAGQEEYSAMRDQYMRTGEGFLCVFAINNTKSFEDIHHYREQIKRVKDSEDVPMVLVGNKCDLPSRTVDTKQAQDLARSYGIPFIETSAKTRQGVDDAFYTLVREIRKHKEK
Chain of KRAS G13D (P62937 whole entry): as the sequence (P62937 whole entry) above
T2 sequence (P01111 whole entry): as the sequence (P01111 whole entry G12C) above, with C12G counted along it
T2 sequence (P62937 whole entry): as the sequence (P62937 whole entry) above

Compound | IC50 (NRAS Q61K) | IC50 (KRAS G13C) | IC50 (NCI-H358 (K-Ras G12C)) | IC50 (KRAS G13D) | IC50 (NRAS WT) | IC50 (KRAS Q61H) | IC50 (KRAS G12C) | IC50 (NRAS Q61R) | IC50 (KRAS G12S) | IC50 (NRAS G12C) | IC50 (AsPC-1 (K-Ras G12D) [1]) | IC50 (KRAS G12V) | IC50 (KRAS G12D) | EC50 (AsPC-1 (K-Ras G12D) [2]) | IC50 (KRAS WT)
CCn1c(-c2cccnc2[C@H](C)OC)c2c3cc(ccc31)-c1cc(O)cc(c1)C[C@H](NC(=O)[C@H](C(C)C)N1CO[C@]3(CCN(C(=O)[C@H]4CN4)C3)C1=O)C(=O)N1CCC[C@H](N1)C(=O)OCC(C)(C)C2 [Compound 231] | 10 to 100 nM | < 10 nM | < 10 nM | 10 to 100 nM | 10 to 100 nM | < 10 nM | < 10 nM | 100 to 1000 nM | 10 to 100 nM | < 10 nM | 100 to 1000 nM | 10 to 100 nM | 10 to 100 nM | < 5000 nM | 10 to 100 nM
CCn1c(-c2cccnc2[C@H](C)OC)c2c3cc(ccc31)-c1csc(n1)C[C@H](NC(=O)[C@H](C1CCCC1)N1CC[C@]3(CCN(C(=O)[C@@H]4N[C@@H]4C4CC4)C3)C1=O)C(=O)N1CCC[C@H](N1)C(=O)OCC(C)(C)C2 [Compound 234] | 1000 to 10000 nM | 1000 to 10000 nM | 10 to 100 nM | > 10000 nM | 1000 to 10000 nM | 1000 to 10000 nM | 100 to 1000 nM | 1000 to 10000 nM | 1000 to 10000 nM | 1000 to 10000 nM | 100 to 1000 nM | 1000 to 10000 nM | 1000 to 10000 nM | – | 1000 to 10000 nM
CCn1c(-c2cccnc2[C@H](C)OC)c2c3cc(ccc31)-c1csc(n1)C[C@H](NC(=O)[C@H](C(C)C)N(C)C(=O)N1C3CCC1CN(C(=O)[C@H]1CN1)C3)C(=O)N1CCC[C@H](N1)C(=O)OCC(C)(C)C2 [Compound 303] | 100 to 1000 nM | 100 to 1000 nM | 10 to 100 nM | 100 to 1000 nM | 100 to 1000 nM | 10 to 100 nM | 100 to 1000 nM | 100 to 1000 nM | 100 to 1000 nM | 100 to 1000 nM | 100 to 1000 nM | 100 to 1000 nM | 100 to 1000 nM | < 5000 nM | 100 to 1000 nM
CCn1c(-c2cccnc2[C@H](C)OC)c2c3cc(ccc31)-c1cc(cc(C(F)F)c1)C[C@H](NC(=O)[C@H](C1CCCC1)N1CC[C@]3(CCN(C(=O)[C@@H]4N[C@@H]4C4CC4)C3)C1=O)C(=O)N1CCC[C@H](N1)C(=O)OCC(C)(C)C2 [Compound 318] | 1000 to 10000 nM | 100 to 1000 nM | 100 to 1000 nM | 1000 to 10000 nM | 1000 to 10000 nM | 100 to 1000 nM | 100 to 1000 nM | 1000 to 10000 nM | 1000 to 10000 nM | 1000 to 10000 nM | 100 to 1000 nM | 1000 to 10000 nM | 1000 to 10000 nM | – | 100 to 1000 nM
